Where “and” joins values, the source holds several entries; their conditions need not be identical. Equal entries are not always repeated.
Assay: xn = mol fraction of the nth substance listed

CC(N)CN (configuration not stated) + O
viscosity [mPa·s], 101 kPa
Conditions | 298.15 K | 303.15 K | 308.15 K | 313.15 K | 318.15 K | 323.15 K
x1 = 0.0997 | 6.527 | 5.479 | 4.625 | 3.878 | 3.237 | –
x1 = 0.0998 | – | 3.004 | 2.529 | 2.154 | 1.855 | 1.625
x1 = 0.1997 | – | 6.596 | 5.258 | 4.287 | 3.559 | 2.977
x1 = 0.2002 | 9.458 | 7.901 | 6.605 | 5.522 | 4.611 | –
x1 = 0.2522 | – | 7.702 | 6.095 | 4.913 | 4.041 | 3.365
x1 = 0.2992 | – | 8.043 | 6.383 | 5.139 | 4.211 | 3.495
x1 = 0.2998 | 10.24 | 8.542 | 7.121 | 5.956 | 4.993 | –
x1 = 0.3412 | – | 7.793 | 6.196 | 5.033 | 4.11 | 3.452
x1 = 0.3995 | 9.546 | 7.939 | 6.633 | 5.555 | 4.676 | –
x1 = 0.4012 | – | 7.095 | 5.678 | 4.69 | 3.823 | 3.204
x1 = 0.4957 | 8.037 | 6.649 | 5.591 | 4.69 | 3.961 | –
x1 = 0.5022 | – | 5.538 | 4.504 | 3.734 | 3.14 | 2.671
x1 = 0.6011 | – | 3.921 | 3.288 | 2.792 | 2.395 | 2.08
x1 = 0.6024 | 6.005 | 4.915 | 4.178 | 3.516 | 2.983 | –
x1 = 0.6913 | – | 2.844 | 2.443 | 2.113 | 1.85 | 1.632
x1 = 0.694 | 4.35 | 3.566 | 3.067 | 2.603 | 2.23 | –
x1 = 0.7912 | – | 2.119 | 1.854 | 1.634 | 1.45 | 1.302
x1 = 0.7949 | 2.882 | 2.425 | 2.098 | 1.814 | 1.585 | –
x1 = 0.8901 | 1.975 | 1.752 | 1.508 | 1.337 | 1.199 | –
x1 = 0.8998 | – | 1.689 | 1.501 | 1.312 | 1.216 | 1.101

Cc1cccc(C)n1 + O
Conditions | viscosity
293.18 K, 101 kPa, x1 = 0.06338 | 2.838 mPa·s
295.15 K, 101 kPa, x1 = 0.0183 | 1.357 mPa·s
295.15 K, 101 kPa, x1 = 0.0403 | 1.932 mPa·s
295.15 K, 101 kPa, x1 = 0.0675 | 2.915 mPa·s
295.15 K, 101 kPa, x1 = 0.0833 | 3.276 mPa·s
295.15 K, 101 kPa, x1 = 0.144 | 4.298 mPa·s
295.15 K, 101 kPa, x1 = 0.282 | 5.153 mPa·s
295.15 K, 101 kPa, x1 = 0.402 | 4.278 mPa·s
295.15 K, 101 kPa, x1 = 0.602 | 2.687 mPa·s
296.18 K, 101 kPa, x1 = 0.06338 | 2.578 mPa·s
298.12 K, 101 kPa, x1 = 0.3006 | 4.353 mPa·s
298.15 K, 101 kPa, x1 = 0.02034 | 1.346 mPa·s
298.15 K, 101 kPa, x1 = 0.0297 | 1.553 mPa·s
298.15 K, 101 kPa, x1 = 0.05039 | 2.066 mPa·s
298.15 K, 101 kPa, x1 = 0.07682 | 2.713 mPa·s
298.15 K, 101 kPa, x1 = 0.1166 | 3.638 mPa·s
298.15 K, 101 kPa, x1 = 0.1208 | 3.916 mPa·s
298.16 K, 101 kPa, x1 = 0.5008 | 2.844 mPa·s
298.17 K, 101 kPa, x1 = 0.3981 | 3.708 mPa·s
298.18 K, 101 kPa, x1 = 0.06338 | 2.428 mPa·s
298.19 K, 101 kPa, x1 = 0.0602 | 2.361 mPa·s
298.19 K, 101 kPa, x1 = 0.7887 | 1.038 mPa·s
298.2 K, 101 kPa, x1 = 0.1001 | 3.14 mPa·s
298.2 K, 101 kPa, x1 = 0.651 | 1.812 mPa·s
298.21 K, 101 kPa, x1 = 0.0501 | 2.095 mPa·s
298.23 K, 101 kPa, x1 = 0.2004 | 4.298 mPa·s
299.18 K, 101 kPa, x1 = 0.06338 | 2.36 mPa·s
300.12 K, 101.33 kPa, x1 = 0.0182 | 1.217 mPa·s
300.18 K, 101 kPa, x1 = 0.06338 | 2.291 mPa·s
301.18 K, 101 kPa, x1 = 0.06338 | 2.243 mPa·s
302.02 K, 101 kPa, x1 = 0.0297 | 1.415 mPa·s
302.18 K, 101 kPa, x1 = 0.06338 | 2.182 mPa·s
303.02 K, 101 kPa, x1 = 0.2004 | 3.54 mPa·s
303.05 K, 101 kPa, x1 = 0.0602 | 2.172 mPa·s
303.08 K, 101 kPa, x1 = 0.1001 | 2.712 mPa·s
303.12 K, 101.33 kPa, x1 = 0.0182 | 1.132 mPa·s
303.17 K, 101 kPa, x1 = 0.0501 | 1.932 mPa·s
303.17 K, 101 kPa, x1 = 0.3006 | 3.538 mPa·s
303.18 K, 101 kPa, x1 = 0.06338 | 2.136 mPa·s
303.19 K, 101 kPa, x1 = 0.3981 | 3.072 mPa·s
303.19 K, 101 kPa, x1 = 0.5008 | 2.464 mPa·s
303.23 K, 101 kPa, x1 = 0.7887 | 0.955 mPa·s
303.26 K, 101 kPa, x1 = 0.651 | 1.593 mPa·s
304.18 K, 101 kPa, x1 = 0.06338 | 2.093 mPa·s
304.48 K, 101 kPa, x1 = 0.06338 | 2.084 mPa·s
304.78 K, 101 kPa, x1 = 0.06338 | 2.076 mPa·s
304.98 K, 101 kPa, x1 = 0.06338 | 2.071 mPa·s
305.18 K, 101 kPa, x1 = 0.06338 | 2.066 mPa·s
305.38 K, 101 kPa, x1 = 0.06338 | 2.063 mPa·s
305.58 K, 101 kPa, x1 = 0.06338 | 2.064 mPa·s
305.78 K, 101 kPa, x1 = 0.06338 | 2.065 mPa·s
305.98 K, 101 kPa, x1 = 0.06338 | 2.065 mPa·s
306.18 K, 101 kPa, x1 = 0.06338 | 2.058 mPa·s
306.28 K, 101 kPa, x1 = 0.06338 | 2.074 mPa·s
306.38 K, 101 kPa, x1 = 0.06338 | 2.083 mPa·s
306.48 K, 101 kPa, x1 = 0.06338 | 2.088 mPa·s
306.58 K, 101 kPa, x1 = 0.06338 | 2.101 mPa·s
306.68 K, 101 kPa, x1 = 0.06338 | 2.124 mPa·s
306.78 K, 101 kPa, x1 = 0.06338 | 2.141 mPa·s
306.83 K, 101 kPa, x1 = 0.06338 | 2.151 mPa·s
306.88 K, 101 kPa, x1 = 0.06338 | 2.183 mPa·s
306.9 K, 101 kPa, x1 = 0.06338 | 2.198 mPa·s
306.93 K, 101 kPa, x1 = 0.06338 | 2.22 mPa·s
306.95 K, 101 kPa, x1 = 0.06338 | 2.242 mPa·s
306.97 K, 101 kPa, x1 = 0.06338 | 2.27 mPa·s
306.98 K, 101 kPa, x1 = 0.06338 | 2.291 mPa·s
306.99 K, 101 kPa, x1 = 0.06338 | 2.316 mPa·s
307 K, 101 kPa, x1 = 0.06338 | 2.344 mPa·s and 2.36 mPa·s
307.01 K, 101 kPa, x1 = 0.06338 | 2.384 mPa·s and 2.396 mPa·s and 2.405 mPa·s
307.35 K, 101 kPa, x1 = 0.043 | 1.5 mPa·s
307.35 K, 101 kPa, x1 = 0.0974 | 1.8 mPa·s
307.65 K, 101 kPa, x1 = 0.0403 | 1.35 mPa·s
307.65 K, 101 kPa, x1 = 0.105 | 1.95 mPa·s
308.15 K, 101 kPa, x1 = 0.0349 | 1.2 mPa·s
308.15 K, 101 kPa, x1 = 0.116 | 2.2 mPa·s
308.18 K, 101 kPa, x1 = 0.5008 | 2.071 mPa·s
308.21 K, 101 kPa, x1 = 0.3981 | 2.587 mPa·s
308.23 K, 101 kPa, x1 = 0.7887 | 0.881 mPa·s
308.26 K, 101 kPa, x1 = 0.651 | 1.413 mPa·s
309.15 K, 101 kPa, x1 = 0.0288 | 1.1 mPa·s
309.15 K, 101 kPa, x1 = 0.131 | 2.57 mPa·s
311.15 K, 101 kPa, x1 = 0.0204 | 0.96 mPa·s
311.15 K, 101 kPa, x1 = 0.155 | 2.47 mPa·s
313.15 K, 101 kPa, x1 = 0.0185 | 0.88 mPa·s
313.15 K, 101 kPa, x1 = 0.172 | 2.38 mPa·s
313.25 K, 101 kPa, x1 = 0.5008 | 1.794 mPa·s
313.31 K, 101 kPa, x1 = 0.3981 | 2.196 mPa·s
313.32 K, 101 kPa, x1 = 0.651 | 1.262 mPa·s
313.34 K, 101 kPa, x1 = 0.7887 | 0.815 mPa·s
318.3 K, 101 kPa, x1 = 0.5008 | 1.571 mPa·s
318.34 K, 101 kPa, x1 = 0.3981 | 1.902 mPa·s
318.36 K, 101 kPa, x1 = 0.7887 | 0.758 mPa·s
318.37 K, 101 kPa, x1 = 0.651 | 1.134 mPa·s
319.15 K, 101 kPa, x1 = 0.017 | 0.73 mPa·s
319.15 K, 101 kPa, x1 = 0.218 | 1.81 mPa·s
323.15 K, 101 kPa, x1 = 0.013 | 0.63 mPa·s
323.15 K, 101 kPa, x1 = 0.236 | 1.7 mPa·s

From the CheMixHub viscosity set
